Like-named read-outs stand apart in the source and are kept apart here. Where only a bound is given, the exact number is not on record here.

Data on eleven compounds can be found in US9402826B2, “Neuronal pain pathway modulators” (The Trustees of Columbia University in the City of New York, priority 2006, dated 2016).

The target in one series is T1, PKG (Homo sapiens, UniProt Q13976).
T1 sequence (Q13976 1-671): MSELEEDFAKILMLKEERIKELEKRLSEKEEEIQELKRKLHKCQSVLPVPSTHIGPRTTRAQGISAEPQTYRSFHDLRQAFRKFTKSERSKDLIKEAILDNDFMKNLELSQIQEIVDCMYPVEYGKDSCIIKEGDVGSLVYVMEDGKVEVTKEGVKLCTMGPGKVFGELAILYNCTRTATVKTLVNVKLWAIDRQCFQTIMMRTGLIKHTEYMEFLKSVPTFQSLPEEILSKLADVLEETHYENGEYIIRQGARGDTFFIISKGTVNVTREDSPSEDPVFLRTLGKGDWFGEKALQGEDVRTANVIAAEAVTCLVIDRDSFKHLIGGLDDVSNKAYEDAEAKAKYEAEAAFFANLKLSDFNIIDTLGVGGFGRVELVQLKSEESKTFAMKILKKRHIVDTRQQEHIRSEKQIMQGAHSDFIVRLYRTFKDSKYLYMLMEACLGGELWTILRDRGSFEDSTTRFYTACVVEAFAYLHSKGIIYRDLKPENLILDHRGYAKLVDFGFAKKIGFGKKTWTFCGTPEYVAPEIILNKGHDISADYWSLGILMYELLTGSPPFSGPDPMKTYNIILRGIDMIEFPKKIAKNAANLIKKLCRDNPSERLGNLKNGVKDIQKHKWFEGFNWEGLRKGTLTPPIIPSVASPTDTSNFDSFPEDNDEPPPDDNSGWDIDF
As to the kind of experiment: PKG inhibition: transfer of gamma-32P from ATP to peptide substrate. It counts as biochemical.

For series [1], the target named is T2, PKA (Homo sapiens, UniProt P17612). Briefly: PKA inhibition. Conditions: for difference of IC50 for PKA versus PKG: PKA IC50 relative to PKG IC50. It counts as biochemical.
Series [2] deals with rats. Conditions: intrathecal, after induction of an inflammatory response, 10 and 60 minutes later; cited from earlier work.
Series [3] concerns rats. As to the kind of experiment: Behavioural and motor observation of treated rats. It counts as in vivo. The note with it: rat; eating, sleeping, defecating, micturation, balance, exploring, socialization. The procedure:
Modification of compound 6 to increase affinity and selectivity, and perhaps plasma half-life, as described above, will be important. […] For example, the animals had difficulty in changing from the supine to prone positions. […] The effects lasted for at least 24 hours and disappeared after 3 days.

Series [4] deals with CFA-induced thermal hyperalgesia in the hindpaws of rats. Briefly: CFA-induced thermal hyperalgesia, hindpaw withdrawal latency. The note with it: rat; for Effectiveness: 24 hours after CFA injection. Type of series: in vivo. As for the experimental part: Both compounds were further tested for their efficacy in reducing complete Freund's adjuvant (CFA)-induced thermal hyperalgesia in the hindpaws of rats. The hindpaws of rats were first tested for their response to a thermal probe as a baseline reference. Then the right hindpaw was injected with CFA (100 μl). The injected site developed edema and redness, indicating an inflammatory reaction, within 12 hours. […] The rats were then given either compound 6 or 46 at different times after CFA injection via different routes as shown in the tables below. Each hindpaw was then tested for its response to a thermal stimulus on successive days.

For series [5], the target named is T2, PKA. Conditions: cited from earlier work.
The test system of another series is PKC isoforms. The note with it: Series B, Table 2; read-out: IC50 PKC isoforms from literature; cited from earlier work.
[6] abbreviates: Activity: IC50 vrs PKG, Series B, 30 μM ATP.
Setting [7] is: Table 4, read-out: PKA inhibition (IC50).

Regarding `COc1ccc(O)c(C(=O)c2ccc(C(=O)OC3CNCC3NC(=O)c3ccc(O)cc3)cc2)c1F` (stereo not shown) [Compound B-7], the IC50 on PKG (setting [6]) turned out to be 40 nM; against PKG (PKG activity (IC50), Table 1), 40 nM; on PKG (PKG inhibition (IC50), Table 4), 40 nM; at PKA [1] (Series B, Table 2, read-out: Activity: IC50 vrs PKA) it was 38 nM; on PKA [1] (Table 1, read-out: PKA activity (IC50)), 38 nM; on PKA [1] (setting [7]) it was 40 nM. Moreover, at PKA [1], the “difference of IC50 for PKA versus PKG” value was “approximately the same IC50”.
As to `O=C(N[C@@H]1CNC[C@H]1NC(=O)c1ccc(O)cc1)c1ccc(O)cc1` [Compound B-48], the “PKG inhibitory activity (in words)” value at PKG is reported as “moderate PKG inhibitory activity”. Besides, the IC50 at PKG (Table 6, read-out: PKG inhibition (IC50)) was ~200 nM.
On to `O=C(Nc1ccccc1)Nc1ccc(C(=O)O[C@@H]2CCC[C@H]2NC(=O)c2ccc(O)cc2)cc1` (relative stereo) [Series A 11], for which the “Activity (ability to inhibit PKG)” value on PKG (Series A, compounds at 10 μM, 30 μM ATP) is reported as “no inhibition”.
With `CCCOc1ccc(OC)c(F)c1C(=O)c1ccc(C(=O)OC2CNCC2NC(=O)c2ccc(O)cc2)cc1` (stereo not shown) [Compound B-21], the IC50 was 200 nM against PKG (PKG inhibition (IC50), Table 4) and > 10000 nM on PKA [1] (setting [7]).
As to `CCN(CC)CC.Nc1nc2c(nc(Sc3ccc(Cl)cc3)n2[C@@H]2O[C@@H]3COP(O)(=S)O[C@H]3[C@H]2O)c(=O)[nH]1` (stereo partly shown) [Rp-8-[4-chlorophenyl)thio]-cGMPS triethylamine], the “effect on acute pain” value with rats [2] is “significant attenuation of acute pain”.
Regarding `O=C(NC1CNCCCC1OC(=O)c1cc(O)c(C(=O)c2c(O)cccc2C(=O)O)c(O)c1)c1ccc(O)cc1` (stereo not shown) [balanol, reference compound], the IC50 on PKG (Table 3, read-out: PKG inhibition (IC50)) came to 1.6 nM.
For `COCOc1ccc(OC)c(F)c1C(=O)c1ccc(C(=O)OC2CNCC2NC(=O)c2ccc(O)cc2)cc1` (stereo not shown) [Compound B-6], in the series on rats [3], the adverse behavioral effects result is “did not exhibit any adverse behavioral effects”. In addition, the IC50 is 40 nM at PKG (setting [6]); 40 nM on PKG (IC50 with PKG, Example 12); 40 nM at PKG (PKG activity (IC50), Table 1); 40 nM against PKG (PKG inhibition (IC50), Table 4); 950 nM at PKA [1] (Example 12, read-out: IC50 with PKA); 950 nM on PKA [1] (setting [7]). The “Effectiveness (recovery)” value is on record as >90% in series [4] (3.3 nmol, subcutaneous pump, 60 hours after CFA injection, 5 days later) and >50% in series [4] (0.25 μM final CSF conc., intrathecal pump, 72 hours after CFA injection, 10 days). Also, the Effectiveness is given as >90% 6 days in series [4] (25 μM final CSF conc., intrathecal pump, 6 days later) and “No effect” in series [4] (82.5 μM final CSF conc., intrathecal single injection). For the same compound, the “analgesic effects (in words)” value in series [4] (doses and routes tested, preliminary results) was “analgesic effects comparable to that achieved with the most potent commercially available inhibitor of PKG”. In series [4] (single dose injection), the “effect on thermal hyperalgesia” value was “failed to reduce thermal hyperalgesia”. For the same compound, the “difference of IC50 for PKA versus PKG” value on PKA [1] is “about 20 fold”.
As for `O=C(N[C@@H]1CNC[C@H]1NC(=O)c1ccc2[nH]ncc2c1)c1ccc(O)cc1` [Compound B-50], the concentration for half-maximal inhibition (IC50) amounted to 70 nM against PKG (IC50 (PKG), text b321) and 70 nM on PKA [1] (Table 6, read-out: PKA inhibition (IC50)). Besides, on PKA [1] (PKG versus PKA), the “selectivity over PKA (in words)” value was “no selectivity over PKA”.
With `O=C(OCc1ccccc1Cl)c1ccc(-c2ccc(O)cc2)cc1` [Compound 8J], the “inhibition of PKG activity” value against PKG (10 μM compound, average of two independent experiments) is reported as “weaker inhibition”. Further, the “inhibitory activity on PKG (in words)” value at PKG (1 and 10 micromolar compound (FIGS. 10A-B)) is “significant inhibitory activity”.
Turning to `O=C(NC1CNCC1OC(=O)c1cc(O)c(C(=O)c2c(O)cccc2C(=O)O)c(O)c1)c1ccc(O)cc1` (stereo not shown) [Compound B-2, reference compound], the IC50 on PKA [5] (read-out: IC50 PKA from literature, Series B, Table 2) is 70 nM; on PKA [5] (read-out: PKA activity (IC50), Table 1, from Lai et al. 1997), 4 to 33 nM; at PKA [5] (read-out: PKA inhibition (IC50), Table 3, same values given as from literature in Table 2), 70 nM; against PKG (setting [6]), 7 nM; against PKG (PKG activity (IC50), Table 1), 7 nM; against PKG (PKG inhibition (IC50), Table 3) it was 7 nM. In addition, in the series on PKC isoforms, the IC50 is 4 to 33 nM. For the same compound, at PKG, the “reduction of PKG inhibition relative to balanol” value worked out at 5 fold. On PKA [1], the “difference of IC50 for PKA versus PKG” value was 3 fold.
`O=C(NC1CCCC1OC(=O)c1cc(O)c(C(=O)c2c(O)cccc2C(=O)O)c(O)c1)c1ccc(O)cc1` (stereo not shown) [Compound B-1, reference compound]: the IC50 is 7 to 8 nM against PKG (setting [6]); 7 to 8 nM at PKG (PKG activity (IC50), Table 1); 7 nM against PKG (PKG inhibition (IC50), Table 3). Further, the “difference of IC50 for PKA versus PKG” value at PKA [1] was determined as 3 fold.
